Drawing on patent US20070178151A1, “Spray dried pharmaceutical compositions” (priority 2004, published 2007), this text covers solubility for one molecule.

This series is described as follows: aqueous solubility of talnetant. The series is classed as physicochemical. Particulars: aqueous medium. From the text: Typically drugs with low aqueous solubility are absorbed slowly across the walls of the gastrointestinal tract (GIT) due to poor dissolution of the solid in the GIT leading to a small diffusive driving force.

≈ marks a conversion by molar mass, not a printed value.

With `CC[C@H](NC(=O)c1c(O)c(-c2ccccc2)nc2ccccc12)c1ccccc1` [Talnetant, (S)-(−)-N-(α-ethylbenzyl)-3-hydroxy-2-phenylquinoline4-carboxamide], the solubility reads like this: (aqueous buffer, pH 7.0) about 1 µg/mL (≈ 2.61 µM); (pH 1, simulated gastric fluid) about 30 µg/mL (≈ 78.4 µM).

One may read the solubility as the concentration that dissolves in the medium under given conditions. Low values mean a poorly soluble substance, high ones a readily soluble substance.
